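Results reflect a 48-hour exposure of cells in 96-well plates to compound at five concentrations. GI50: concentration for 50% inhibition of growth.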 Calls of active or inactive are those of the source. No stated cut-off is given here; in the data, active = GI50 up to about 1.1 µM and inactive = higher.

Test systems include NCI-H226; SR; U-251; EKVX; MOLT-4; CAKI-1; HCT-15; MDA-N; A549; OVCAR-8; NCI-H522; OVCAR-4; ACHN; Hs-578T; TK-10; NCI/ADR-RES; UACC-62; SF-295; NCI-H23; HCC 2998.
Holding throughout (experiment): DTP human tumour cell line panel, 48 h

Consider `COC(=O)CNC(=O)C(Cc1ccccc1)NC(=O)c1ccc(-c2ccc(Cl)cc2Cl)o1` (stereo unspecified), for which the GI50 with NCI-H226 is 48.4 µM (inactive); in the test with SR it was 14.9 µM (inactive); in the test with U-251, 28.5 µM (inactive); in the test on EKVX it was 20.3 µM (inactive); in the test with MOLT-4 it was 14.3 µM (inactive); in the test with CAKI-1 it was 19.2 µM (inactive). Further, the GI50 with HCT-15 is 23.3 µM; with MDA-N, 24.8 µM (inactive); with A549 it was 25 µM (inactive); in the test with OVCAR-8 it was 25.1 µM (inactive); with NCI-H522, 13.4 µM (inactive); in the test on OVCAR-4, 21.5 µM (inactive). For the same compound, the GI50 with ACHN was 18.9 µM (inactive); with Hs-578T, 15.3 µM (inactive); in the test on TK-10 it was 24.7 µM (inactive); with NCI/ADR-RES, 21.8 µM (inactive); with UACC-62, 13.6 µM (inactive); in the test on SF-295, 18.7 µM (inactive). In addition, in the test on NCI-H23, the GI50 is 23.7 µM (inactive).
Take `CCN1C(=O)/C(=C2\SC(c3ccccc3)(c3ccccc3)c3ccccc32)SC1=S`: the GI50 was > 100 µM (inactive) in the test on NCI-H226; 18.6 µM (inactive) with SR; 44.7 µM (inactive) with U-251; 75.9 µM (inactive) with EKVX; 96.4 µM (inactive) in the test with MOLT-4; above 100 µM in the test on HCT-15. The GI50 is > 100 µM (inactive) with MDA-N; 87.9 µM (inactive) in the test with A549; 75.5 µM (inactive) in the test on OVCAR-8; > 100 µM (inactive) in the test with NCI-H522; 63.4 µM (inactive) in the test with OVCAR-4; > 100 µM (inactive) in the test with ACHN. Further, the GI50 in the test on Hs-578T is 32.2 µM (inactive); in the test on TK-10 it was > 100 µM (inactive); with NCI/ADR-RES, > 100 µM (inactive); in the test on HCC 2998 it was > 100 µM (inactive); in the test on UACC-62, > 100 µM (inactive); in the test with SF-295, 24.4 µM (inactive). In the test on NCI-H23, the GI50 is > 100 µM (inactive).
`COC(=O)C1C2CCCN2OC1(C)CO` (stereo unspecified): the GI50 with NCI-H226, in the test on SR, in the test on U-251, with EKVX, in the test with MOLT-4 and in the test with CAKI-1 was > 100 µM (inactive) each time. The GI50 is above 100 µM in the test on HCT-15; > 100 µM (inactive) in the test with MDA-N; > 100 µM (inactive) in the test on A549; > 100 µM (inactive) in the test with OVCAR-8; > 100 µM (inactive) in the test on NCI-H522; > 100 µM (inactive) in the test on OVCAR-4. Besides, the GI50 in the test with ACHN, with Hs-578T, in the test with TK-10, in the test on NCI/ADR-RES, with UACC-62 and with SF-295 was > 100 µM (inactive) in each case. For the same compound, the GI50 in the test with NCI-H23 is > 100 µM (inactive).
`Fc1cccc(F)c1C1SCc2nc3cc(Cl)ccc3n21` (stereo unspecified): the GI50 with SR was 17.8 µM (inactive); in the test on U-251 it was 22 µM (inactive); with EKVX, 36.6 µM (inactive); in the test with MOLT-4 it was 14 µM (inactive); in the test on CAKI-1 it was 16.6 µM (inactive); in the test with HCT-15, 28.6 µM. Besides, the GI50 with MDA-N is 32.8 µM (inactive); in the test with A549 it was 31.3 µM (inactive); with OVCAR-8, 58.7 µM (inactive); with NCI-H522, 39.7 µM (inactive); in the test on OVCAR-4, 35.9 µM (inactive); in the test on ACHN, 31.3 µM (inactive). Further, the GI50 is > 44.7 µM (inactive) with Hs-578T; > 100 µM (inactive) with TK-10; 24.2 µM (inactive) in the test on NCI/ADR-RES; 22.7 µM (inactive) in the test on HCC 2998; 37.9 µM (inactive) in the test with UACC-62; 33.2 µM (inactive) in the test with SF-295. In addition, the GI50 in the test on NCI-H23 was 28.5 µM (inactive).
